Test results: ChEMBL document CHEMBL1201862, “PubChem BioAssay data set” (2004)
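Results reflect a 48-hour exposure of cells in 96-well plates to compound at five concentrations. Abbreviation: GI50, concentration required for 50% inhibition of growth.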 The source made the active and inactive calls. No stated cut-off is given here; in the data, active = GI50 up to about 1.1 µM and inactive = higher.

Assays:
Test in all cases: DTP human tumour cell line panel, 48 h
[1] = system: HL-60
[2] = system: MCF7
[3] = system: SN12C
[4] = system: T47D
[5] = system: TK-10
[6] = system: CCRF-CEM
[7] = system: MDA-MB-435
[8] = system: MOLT-4
[9] = system: Malme-3M
[10] = system: SK-MEL-2
[11] = system: RPMI-8226
[12] = system: SNB-75
[13] = system: SK-OV-3
[14] = system: 786-0
[15] = system: SNB-19
[16] = system: DU-145
[17] = system: K562
[18] = system: HCT-116
[19] = system: HOP-62
[20] = system: NCI-H23
[21] = system: CAKI-1
[22] = system: SK-MEL-5
[23] = system: OVCAR-4
[24] = system: LOX IMVI
[25] = system: EKVX
[26] = system: MDA-N
[27] = system: SK-MEL-28
[28] = system: OVCAR-8
[29] = system: U-251
[30] = system: ACHN
[31] = system: A549
[32] = system: MDA-MB-231
[33] = system: NCI-H226
[34] = system: SW-620
[35] = system: HCT-15
[36] = system: M14
[37] = system: IGROV-1
[38] = system: UACC-257
[39] = system: HOP-92
[40] = system: OVCAR-3
[41] = system: SF-295
[42] = system: UO-31
[43] = system: KM12
[44] = system: HCC 2998
[45] = system: COLO 205
[46] = system: PC-3
[47] = system: RXF 393
[48] = system: HT-29
[49] = system: SF-539
[50] = system: NCI-H522
[51] = system: A498
[52] = system: NCI/ADR-RES
[53] = system: UACC-62
[54] = system: OVCAR-5
[55] = system: NCI-H460
[56] = system: Hs-578T
[57] = system: SF-268
[58] = system: SR

What does the source list for `COc1ccc(Nc2c[nH]c(=O)[nH]c2=O)cc1`?
GI50 [1]: > 100 µM (inactive); GI50 [2]: > 100 µM (inactive); GI50 [3]: > 100 µM (inactive); GI50 [4]: > 100 µM (inactive); GI50 [5]: > 100 µM (inactive); GI50 [6]: > 100 µM (inactive); GI50 [7]: > 100 µM (inactive); GI50 [8]: > 100 µM (inactive); GI50 [9]: > 100 µM (inactive); GI50 [10]: > 100 µM (inactive); GI50 [11]: > 100 µM (inactive); GI50 [12]: > 100 µM (inactive); GI50 [13]: > 100 µM (inactive); GI50 [14]: > 100 µM (inactive); GI50 [15]: > 100 µM (inactive); GI50 [16]: > 100 µM (inactive); GI50 [17]: > 100 µM (inactive); GI50 [18]: > 100 µM (inactive); GI50 [19]: > 100 µM (inactive); GI50 [20]: > 100 µM (inactive); GI50 [21]: > 100 µM (inactive); GI50 [22]: > 100 µM (inactive); GI50 [23]: > 100 µM (inactive); GI50 [24]: > 100 µM (inactive); GI50 [25]: > 100 µM (inactive); GI50 [26]: > 100 µM (inactive); GI50 [27]: > 100 µM (inactive); GI50 [28]: > 100 µM (inactive); GI50 [29]: > 100 µM (inactive); GI50 [30]: > 100 µM (inactive); GI50 [31]: > 100 µM (inactive); GI50 [32]: > 100 µM (inactive); GI50 [33]: > 100 µM (inactive); GI50 [34]: > 100 µM (inactive); GI50 [35]: > 100 µM; GI50 [36]: > 100 µM (inactive); GI50 [37]: > 100 µM (inactive); GI50 [38]: > 100 µM (inactive); GI50 [39]: > 100 µM (inactive); GI50 [40]: > 100 µM (inactive); GI50 [41]: > 100 µM (inactive); GI50 [42]: > 100 µM (inactive); GI50 [43]: > 100 µM (inactive); GI50 [44]: > 100 µM (inactive); GI50 [45]: > 100 µM (inactive); GI50 [46]: > 100 µM (inactive); GI50 [47]: > 100 µM (inactive); GI50 [48]: > 100 µM (inactive); GI50 [49]: > 100 µM (inactive); GI50 [50]: > 100 µM (inactive); GI50 [51]: > 100 µM (inactive); GI50 [52]: > 100 µM (inactive); GI50 [53]: > 100 µM (inactive)

For `CC1(C)[N+]([O-])=[N+]([O-])C1(Br)c1ccccc1` (centres undefined), which GI50 [1] is on record?
Its GI50 is 33 µM (inactive).

And the GI50 [2]?
The GI50 was 72.9 µM (inactive).

And the GI50 [3]?
The GI50 was > 100 µM (inactive).

What about the GI50 [4] of the same molecule?
Its GI50 is > 100 µM (inactive).

And the GI50 [5]?
Its GI50 is > 100 µM (inactive).

And the GI50 [6]?
Its GI50 is 39.9 µM (inactive).

What about the GI50 [7] of the same molecule?
The GI50 was > 100 µM (inactive).

What about the GI50 [8] of the same molecule?
The GI50 was 45.4 µM (inactive).

And the GI50 [9]?
The GI50 was > 100 µM (inactive).

And the GI50 [54]?
Its GI50 is > 100 µM (inactive).

What about the GI50 [10] of the same molecule?
Its GI50 is > 100 µM (inactive).

And the GI50 [11]?
Its GI50 is 42.7 µM (inactive).

And the GI50 [12]?
Its GI50 is > 100 µM (inactive).

And the GI50 [55]?
Its GI50 is 68.2 µM (inactive).

And the GI50 [13]?
The GI50 was > 100 µM (inactive).

What about the GI50 [14] of the same molecule?
The GI50 was 68.9 µM (inactive).

And the GI50 [56]?
Its GI50 is > 100 µM (inactive).

What about the GI50 [57] of the same molecule?
Its GI50 is 65.3 µM (inactive).

And the GI50 [15]?
The GI50 was > 100 µM (inactive).

And the GI50 [16]?
Its GI50 is 79.1 µM (inactive).

And the GI50 [17]?
Its GI50 is 85.7 µM (inactive).

And the GI50 [18]?
Its GI50 is > 100 µM (inactive).

What about the GI50 [19] of the same molecule?
Its GI50 is > 100 µM (inactive).

And the GI50 [20]?
The GI50 was 80.9 µM (inactive).

And the GI50 [21]?
Its GI50 is > 100 µM (inactive).

What about the GI50 [22] of the same molecule?
Its GI50 is > 100 µM (inactive).

And the GI50 [23]?
Its GI50 is 82.2 µM (inactive).

What about the GI50 [24] of the same molecule?
The GI50 was 48.1 µM (inactive).

What about the GI50 [25] of the same molecule?
The GI50 was > 100 µM (inactive).

And the GI50 [26]?
The GI50 was > 100 µM (inactive).

What about the GI50 [27] of the same molecule?
Its GI50 is > 100 µM (inactive).

What about the GI50 [28] of the same molecule?
Its GI50 is > 100 µM (inactive).

What about the GI50 [29] of the same molecule?
Its GI50 is > 100 µM (inactive).

What about the GI50 [30] of the same molecule?
Its GI50 is > 100 µM (inactive).

And the GI50 [31]?
The GI50 was > 100 µM (inactive).

What about the GI50 [58] of the same molecule?
Its GI50 is 43.5 µM (inactive).

And the GI50 [32]?
Its GI50 is 59.6 µM (inactive).

What about the GI50 [33] of the same molecule?
The GI50 was > 100 µM (inactive).

And the GI50 [34]?
Its GI50 is > 100 µM (inactive).

And the GI50 [35]?
The GI50 was 64.6 µM.

What about the GI50 [36] of the same molecule?
The GI50 was > 100 µM (inactive).

What about the GI50 [37] of the same molecule?
The GI50 was > 100 µM (inactive).

What about the GI50 [38] of the same molecule?
The GI50 was 54.8 µM (inactive).

And the GI50 [39]?
Its GI50 is > 100 µM (inactive).

What about the GI50 [40] of the same molecule?
The GI50 was 39.2 µM (inactive).

What about the GI50 [41] of the same molecule?
Its GI50 is 49.2 µM (inactive).

And the GI50 [42]?
Its GI50 is 28.8 µM (inactive).

What about the GI50 [43] of the same molecule?
Its GI50 is 89.1 µM (inactive).

And the GI50 [44]?
Its GI50 is > 100 µM (inactive).

And the GI50 [45]?
Its GI50 is > 100 µM (inactive).

What about the GI50 [46] of the same molecule?
Its GI50 is > 100 µM (inactive).

And the GI50 [47]?
Its GI50 is 25.8 µM (inactive).

What about the GI50 [48] of the same molecule?
The GI50 was 39.3 µM (inactive).

What about the GI50 [49] of the same molecule?
The GI50 was > 100 µM (inactive).

And the GI50 [52]?
Its GI50 is 43.9 µM (inactive).

What about the GI50 [53] of the same molecule?
The GI50 was > 100 µM (inactive).
